The term AUC(0-inf) denotes the area under the concentration-time curve extrapolated to infinity. For orientation: clearance means the rate of elimination divided by the concentration. The half-life is the time in which the quantity being followed falls by half. By bioavailability is commonly meant the share of a dose that reaches the circulation, judged against a reference dose that is usually intravenous. Low values mean little systemic uptake, high ones much systemic uptake. One may read the Vd as a proportionality between amount in the body and measured concentration, not a real space. Low readings indicate confinement near the circulation, high ones extensive tissue distribution. As usually defined, the Cmax is the peak of the concentration-time curve. The term AUC denotes concentration integrated over time. A lower AUC goes with less exposure.

This is an account of results in ChEMBL document CHEMBL3785028 (J Med Chem, 2016).

Holding throughout (type): ADME, organism-based
What all share (conditions): in vivo

Data set [1] can be described thus: AUC(0 to infinity) in mouse at 30 mg/kg, po. On the set-up: dose 30 mg/kg, route oral, time infinity.
Data set [2] is described as follows: Clearance in rat at 1 mg/kg, iv.
Data set [3] is described as follows: Half life in rat at 1 mg/kg, iv.
Data set [4] can be described thus: Oral bioavailability in rat at 2 mg/kg.
Data set [5] in a line: Half life in rat at 2 mg/kg, po.
A short description of data set [6]: Half life in mouse at 30 mg/kg, po.
The nature of data set [7]: Volume of distribution in rat at 1 mg/kg, iv.
Data set [8] in a line: Cmax in rat at 2 mg/kg, po. On the set-up: dose 2 mg/kg, route oral.
The nature of data set [9]: AUC in rat at 2 mg/kg, po.

`CN1C(=O)[C@@H](NC(=O)c2cc(Cc3ccccc3)on2)CNc2ccccc21` displayed an AUC(0-inf) in data set [1] of 2000 ng·h/mL. In data set [2], the clearance came out at 57 mL/min/kg. Further, the half-life in data set [3] is 0.85 h; in data set [5], 1.9 h; in data set [6], 1.5 h. The same compound came in with a bioavailability in data set [4] of 75%. The compound also came in with a Vd in data set [7] of 2.2 L/kg.
With `O=C(N[C@H]1COc2ccccc2NC1=O)c1cc(Cc2ccccc2)on1`, the half-life in data set [5] was 2.9 h. This compound also displayed a Cmax in [8] of 810 ng/mL. In [9], this compound returned an AUC of 2200 ng·h/mL.
